Assay results from PMC6757289, “Design and Characterization of SGK3-PROTAC1, an Isoform Specific SGK3 Kinase PROTAC Degrader” (ACS Chemical Biology, 2019).
Where two headings read alike, the source gives them in different places.

Legend:
Experiment in all cases: kinase profiling panel
Type in all cases: biochemical
Conditions in all cases: read-out: % Activity Remaining
BRK = BRK (Homo sapiens, UniProt Q13882)
Excerpt: (§1) Protein kinase profiling against a Dundee panel of 140 protein kinases was undertaken at the International Centre for Protein Kinase Profiling. The result for each kinase was presented as a mean kinase activity of the reaction taken in triplicate relative to a control sample treated with DMSO. Assay conditions and abbreviations are available at http://www.kinase-screen.mrc.ac.uk.

BRSK1 = target: T1, BRSK1 (Homo sapiens, UniProt Q8TDC3)
T1 sequence (Q8TDC3 1-778): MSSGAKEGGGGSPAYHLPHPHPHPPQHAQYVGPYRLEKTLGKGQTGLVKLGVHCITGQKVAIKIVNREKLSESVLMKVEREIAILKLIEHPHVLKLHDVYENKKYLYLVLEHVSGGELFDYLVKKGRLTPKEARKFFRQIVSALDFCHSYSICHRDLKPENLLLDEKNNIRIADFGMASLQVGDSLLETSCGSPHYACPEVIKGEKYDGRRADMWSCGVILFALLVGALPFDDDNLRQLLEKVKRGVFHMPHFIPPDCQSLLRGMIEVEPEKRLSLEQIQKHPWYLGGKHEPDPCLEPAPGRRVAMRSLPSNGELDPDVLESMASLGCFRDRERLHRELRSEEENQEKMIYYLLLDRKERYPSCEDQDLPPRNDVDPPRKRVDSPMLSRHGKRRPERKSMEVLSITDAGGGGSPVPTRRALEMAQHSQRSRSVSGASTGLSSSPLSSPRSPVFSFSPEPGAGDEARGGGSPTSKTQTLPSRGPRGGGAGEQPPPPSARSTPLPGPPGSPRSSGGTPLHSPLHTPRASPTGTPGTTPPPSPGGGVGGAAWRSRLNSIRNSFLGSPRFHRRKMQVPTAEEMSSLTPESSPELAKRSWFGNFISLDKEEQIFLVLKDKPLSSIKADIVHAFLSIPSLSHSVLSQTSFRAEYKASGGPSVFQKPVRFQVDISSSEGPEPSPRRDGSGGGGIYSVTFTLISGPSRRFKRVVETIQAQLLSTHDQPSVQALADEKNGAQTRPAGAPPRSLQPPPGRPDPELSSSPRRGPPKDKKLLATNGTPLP
Excerpt: as §1

ERK2 = ERK2 (Homo sapiens, UniProt P28482)
Sequence of ERK2 (P28482 whole entry): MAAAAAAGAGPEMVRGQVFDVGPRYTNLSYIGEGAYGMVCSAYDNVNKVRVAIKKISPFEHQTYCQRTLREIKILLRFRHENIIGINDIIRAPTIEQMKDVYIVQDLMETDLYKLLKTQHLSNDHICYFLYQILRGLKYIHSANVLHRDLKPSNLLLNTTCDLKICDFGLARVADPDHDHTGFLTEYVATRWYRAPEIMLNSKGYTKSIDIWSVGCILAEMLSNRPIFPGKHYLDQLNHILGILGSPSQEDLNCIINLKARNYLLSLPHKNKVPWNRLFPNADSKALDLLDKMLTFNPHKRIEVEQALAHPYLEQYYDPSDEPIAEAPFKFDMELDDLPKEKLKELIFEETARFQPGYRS
Excerpt: as §1

HER4 = HER4 (Homo sapiens, UniProt Q15303)
Sequence of HER4 (Q15303 26-1308): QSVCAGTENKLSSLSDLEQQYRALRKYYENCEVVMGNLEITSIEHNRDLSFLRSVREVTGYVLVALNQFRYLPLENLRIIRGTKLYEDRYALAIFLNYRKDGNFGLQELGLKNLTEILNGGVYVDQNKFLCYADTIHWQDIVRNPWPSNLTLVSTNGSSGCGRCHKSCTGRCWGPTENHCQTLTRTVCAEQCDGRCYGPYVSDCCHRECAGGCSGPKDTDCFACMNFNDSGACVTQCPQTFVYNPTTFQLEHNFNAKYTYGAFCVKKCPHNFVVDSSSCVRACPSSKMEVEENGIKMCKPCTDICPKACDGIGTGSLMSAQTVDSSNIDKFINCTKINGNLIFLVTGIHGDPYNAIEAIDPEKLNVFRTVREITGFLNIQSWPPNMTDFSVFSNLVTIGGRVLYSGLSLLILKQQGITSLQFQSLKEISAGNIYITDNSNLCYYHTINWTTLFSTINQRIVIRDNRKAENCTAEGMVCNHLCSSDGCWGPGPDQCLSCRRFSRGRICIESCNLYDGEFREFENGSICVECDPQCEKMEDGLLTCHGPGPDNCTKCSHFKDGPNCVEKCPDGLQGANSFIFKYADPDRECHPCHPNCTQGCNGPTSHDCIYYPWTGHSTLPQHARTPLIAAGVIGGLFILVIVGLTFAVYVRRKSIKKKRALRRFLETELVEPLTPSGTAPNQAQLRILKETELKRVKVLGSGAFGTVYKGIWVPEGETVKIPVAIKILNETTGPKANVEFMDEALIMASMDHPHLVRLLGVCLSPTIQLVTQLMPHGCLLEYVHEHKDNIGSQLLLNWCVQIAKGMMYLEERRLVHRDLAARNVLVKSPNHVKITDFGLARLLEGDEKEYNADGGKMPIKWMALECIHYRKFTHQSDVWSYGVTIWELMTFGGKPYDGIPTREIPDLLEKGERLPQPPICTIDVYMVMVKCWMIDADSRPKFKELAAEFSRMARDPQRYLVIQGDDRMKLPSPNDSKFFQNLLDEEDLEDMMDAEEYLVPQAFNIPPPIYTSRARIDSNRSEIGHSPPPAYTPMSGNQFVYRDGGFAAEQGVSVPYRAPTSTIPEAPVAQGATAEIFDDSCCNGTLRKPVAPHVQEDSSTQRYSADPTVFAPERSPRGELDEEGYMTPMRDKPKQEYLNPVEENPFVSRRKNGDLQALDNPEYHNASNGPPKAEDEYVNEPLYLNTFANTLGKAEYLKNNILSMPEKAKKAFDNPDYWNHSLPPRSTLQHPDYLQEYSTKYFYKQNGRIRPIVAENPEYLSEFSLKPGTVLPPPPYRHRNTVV
Excerpt: as §1

HIPK2 = HIPK2 (Homo sapiens, UniProt Q9H2X6)
Sequence of HIPK2 (Q9H2X6 whole entry): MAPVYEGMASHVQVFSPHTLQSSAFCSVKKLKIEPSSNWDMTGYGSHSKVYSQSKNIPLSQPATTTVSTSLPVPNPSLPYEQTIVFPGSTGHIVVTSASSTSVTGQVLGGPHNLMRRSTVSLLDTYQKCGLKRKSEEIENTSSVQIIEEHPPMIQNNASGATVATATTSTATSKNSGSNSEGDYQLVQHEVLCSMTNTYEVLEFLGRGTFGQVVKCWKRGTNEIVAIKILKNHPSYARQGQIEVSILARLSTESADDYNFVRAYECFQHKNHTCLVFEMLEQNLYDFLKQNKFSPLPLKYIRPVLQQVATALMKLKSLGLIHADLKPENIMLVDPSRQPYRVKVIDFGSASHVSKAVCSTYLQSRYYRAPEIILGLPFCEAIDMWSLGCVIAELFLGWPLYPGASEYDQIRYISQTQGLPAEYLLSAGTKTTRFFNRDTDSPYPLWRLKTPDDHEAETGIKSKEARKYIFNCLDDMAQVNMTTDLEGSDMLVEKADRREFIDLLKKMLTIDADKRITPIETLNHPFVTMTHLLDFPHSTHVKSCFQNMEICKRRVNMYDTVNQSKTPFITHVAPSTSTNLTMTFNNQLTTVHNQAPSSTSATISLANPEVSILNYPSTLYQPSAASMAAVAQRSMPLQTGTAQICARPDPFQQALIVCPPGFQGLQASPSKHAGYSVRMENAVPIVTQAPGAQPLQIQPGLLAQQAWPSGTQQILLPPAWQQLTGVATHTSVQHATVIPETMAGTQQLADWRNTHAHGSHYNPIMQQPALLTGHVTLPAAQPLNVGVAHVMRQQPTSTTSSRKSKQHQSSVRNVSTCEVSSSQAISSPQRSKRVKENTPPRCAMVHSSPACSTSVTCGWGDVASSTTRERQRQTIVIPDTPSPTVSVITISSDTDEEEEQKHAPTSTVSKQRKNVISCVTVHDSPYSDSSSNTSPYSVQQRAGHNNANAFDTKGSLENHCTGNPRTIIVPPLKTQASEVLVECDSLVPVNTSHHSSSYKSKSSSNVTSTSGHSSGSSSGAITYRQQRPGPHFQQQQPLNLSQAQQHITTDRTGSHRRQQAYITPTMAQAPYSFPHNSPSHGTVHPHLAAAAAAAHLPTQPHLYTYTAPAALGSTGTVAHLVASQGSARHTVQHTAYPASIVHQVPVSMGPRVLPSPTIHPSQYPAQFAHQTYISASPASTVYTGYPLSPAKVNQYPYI
Excerpt: as §1

Lck = Lck (Homo sapiens, UniProt P06239)
Excerpt: as §1

MKK6 = target: T2, MKK6 (Homo sapiens, UniProt P52564)
T2 sequence (P52564 1-334): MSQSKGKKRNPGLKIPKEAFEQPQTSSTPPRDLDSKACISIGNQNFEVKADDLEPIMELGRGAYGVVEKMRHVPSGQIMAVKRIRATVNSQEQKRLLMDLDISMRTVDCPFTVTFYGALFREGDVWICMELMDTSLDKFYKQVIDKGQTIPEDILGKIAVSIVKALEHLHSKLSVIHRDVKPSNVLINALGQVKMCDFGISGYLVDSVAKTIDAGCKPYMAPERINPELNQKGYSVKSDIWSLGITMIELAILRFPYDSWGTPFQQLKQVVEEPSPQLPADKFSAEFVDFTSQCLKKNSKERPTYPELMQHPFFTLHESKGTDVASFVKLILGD
Excerpt: as §1

MST4 = MST4 (Homo sapiens, UniProt Q9P289)
Sequence of MST4 (Q9P289 whole entry): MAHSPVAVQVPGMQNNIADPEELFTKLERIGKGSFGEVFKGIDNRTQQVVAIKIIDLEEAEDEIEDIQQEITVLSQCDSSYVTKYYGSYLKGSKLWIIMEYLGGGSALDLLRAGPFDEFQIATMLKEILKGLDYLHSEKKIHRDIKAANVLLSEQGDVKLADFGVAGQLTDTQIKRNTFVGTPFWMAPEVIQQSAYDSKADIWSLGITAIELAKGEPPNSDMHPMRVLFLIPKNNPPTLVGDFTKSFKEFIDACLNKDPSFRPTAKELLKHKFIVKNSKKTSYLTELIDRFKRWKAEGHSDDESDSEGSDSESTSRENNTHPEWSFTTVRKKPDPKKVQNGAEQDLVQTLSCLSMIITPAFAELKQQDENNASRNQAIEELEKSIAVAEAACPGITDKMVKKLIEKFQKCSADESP
Excerpt: as §1

PAK6 = PAK6 (Homo sapiens, UniProt Q9NQU5)
Excerpt: as §1

PRAK = target: T3, PRAK (Homo sapiens, UniProt Q8IW41)
T3 sequence (Q8IW41 1-473): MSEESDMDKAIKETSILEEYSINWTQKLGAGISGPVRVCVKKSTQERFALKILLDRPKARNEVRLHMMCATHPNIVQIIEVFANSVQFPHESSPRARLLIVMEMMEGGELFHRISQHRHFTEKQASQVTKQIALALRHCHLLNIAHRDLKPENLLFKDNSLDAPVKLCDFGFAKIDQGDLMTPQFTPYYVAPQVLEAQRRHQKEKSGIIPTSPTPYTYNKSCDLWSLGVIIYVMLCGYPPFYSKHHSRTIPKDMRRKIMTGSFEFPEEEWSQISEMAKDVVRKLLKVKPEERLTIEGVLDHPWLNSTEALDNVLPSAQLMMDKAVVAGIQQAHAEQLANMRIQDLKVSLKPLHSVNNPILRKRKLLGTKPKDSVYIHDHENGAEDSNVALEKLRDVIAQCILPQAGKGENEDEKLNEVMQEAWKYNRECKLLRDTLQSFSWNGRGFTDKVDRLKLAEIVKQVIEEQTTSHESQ
Excerpt: as §1

TSSK1 = target: T4, TSSK1 (Homo sapiens, UniProt Q9BXA7)
T4 sequence (Q9BXA7 1-367): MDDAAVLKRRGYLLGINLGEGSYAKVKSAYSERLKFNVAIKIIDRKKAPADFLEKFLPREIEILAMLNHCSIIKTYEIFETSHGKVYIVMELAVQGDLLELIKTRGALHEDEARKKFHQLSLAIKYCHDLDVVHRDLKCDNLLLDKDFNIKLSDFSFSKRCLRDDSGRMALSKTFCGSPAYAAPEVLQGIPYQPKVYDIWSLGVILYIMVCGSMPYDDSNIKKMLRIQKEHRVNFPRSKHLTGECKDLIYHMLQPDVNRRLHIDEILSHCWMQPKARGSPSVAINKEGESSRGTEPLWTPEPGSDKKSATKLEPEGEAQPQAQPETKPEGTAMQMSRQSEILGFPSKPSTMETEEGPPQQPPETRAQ
Excerpt: as §1

TTBK1 = TTBK1 (Homo sapiens, UniProt Q5TCY1)
Sequence of TTBK1 (Q5TCY1 whole entry): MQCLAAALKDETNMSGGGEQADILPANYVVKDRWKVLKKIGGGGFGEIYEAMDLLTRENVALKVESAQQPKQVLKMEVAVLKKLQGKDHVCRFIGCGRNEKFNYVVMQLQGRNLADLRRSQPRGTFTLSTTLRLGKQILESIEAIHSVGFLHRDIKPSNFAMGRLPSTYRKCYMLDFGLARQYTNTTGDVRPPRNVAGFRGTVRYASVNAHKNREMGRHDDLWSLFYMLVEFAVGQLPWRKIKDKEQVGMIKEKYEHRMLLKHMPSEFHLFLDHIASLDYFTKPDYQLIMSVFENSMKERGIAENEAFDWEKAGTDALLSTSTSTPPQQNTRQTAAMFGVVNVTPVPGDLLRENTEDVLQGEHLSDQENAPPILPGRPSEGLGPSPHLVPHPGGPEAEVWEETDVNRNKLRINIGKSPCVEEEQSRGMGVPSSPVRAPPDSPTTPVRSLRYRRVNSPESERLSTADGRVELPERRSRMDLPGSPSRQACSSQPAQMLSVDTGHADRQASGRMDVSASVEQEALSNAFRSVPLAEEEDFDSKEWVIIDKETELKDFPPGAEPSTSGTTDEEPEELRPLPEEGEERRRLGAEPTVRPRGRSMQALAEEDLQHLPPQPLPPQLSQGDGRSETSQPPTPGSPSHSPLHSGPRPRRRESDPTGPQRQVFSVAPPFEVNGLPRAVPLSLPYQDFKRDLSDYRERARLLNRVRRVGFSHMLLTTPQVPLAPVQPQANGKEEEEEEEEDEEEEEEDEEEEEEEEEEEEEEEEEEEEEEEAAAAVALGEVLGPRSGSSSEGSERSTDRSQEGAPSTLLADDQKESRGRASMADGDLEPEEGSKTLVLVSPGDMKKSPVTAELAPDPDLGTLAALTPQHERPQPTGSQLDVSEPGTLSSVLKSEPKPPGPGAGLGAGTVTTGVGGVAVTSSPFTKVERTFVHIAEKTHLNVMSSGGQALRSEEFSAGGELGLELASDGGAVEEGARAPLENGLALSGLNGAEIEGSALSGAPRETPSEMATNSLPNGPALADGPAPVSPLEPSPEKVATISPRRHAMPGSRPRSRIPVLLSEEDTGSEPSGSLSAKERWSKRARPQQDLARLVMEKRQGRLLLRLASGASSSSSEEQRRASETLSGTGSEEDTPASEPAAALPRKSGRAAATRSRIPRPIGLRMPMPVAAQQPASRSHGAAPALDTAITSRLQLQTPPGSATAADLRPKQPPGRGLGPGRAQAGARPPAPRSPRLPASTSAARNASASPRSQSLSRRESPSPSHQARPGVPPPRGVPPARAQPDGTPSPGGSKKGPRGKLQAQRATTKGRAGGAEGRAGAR
Excerpt: as §1

Sequence of BRK (Q13882 whole entry): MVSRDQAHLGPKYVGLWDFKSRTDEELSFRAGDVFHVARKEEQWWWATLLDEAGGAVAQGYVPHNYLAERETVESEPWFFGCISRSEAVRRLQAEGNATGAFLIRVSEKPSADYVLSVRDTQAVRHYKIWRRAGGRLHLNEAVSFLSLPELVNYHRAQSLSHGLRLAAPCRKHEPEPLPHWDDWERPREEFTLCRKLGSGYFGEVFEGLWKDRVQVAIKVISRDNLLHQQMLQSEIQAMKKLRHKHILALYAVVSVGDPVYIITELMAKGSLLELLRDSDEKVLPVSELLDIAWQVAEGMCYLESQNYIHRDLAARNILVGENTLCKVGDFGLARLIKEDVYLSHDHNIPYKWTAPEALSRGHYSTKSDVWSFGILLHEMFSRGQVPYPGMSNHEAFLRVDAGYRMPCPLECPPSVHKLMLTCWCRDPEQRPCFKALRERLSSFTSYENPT

SMILES | remaining activity at 1 µM (BRK; 1 µM) [%] | remaining activity at 1 µM (BRSK1; 1 µM) [%] | remaining activity at 1 µM (ERK2; 1 µM) [%] | remaining activity at 1 µM (HER4; 1 µM) [%] | remaining activity at 1 µM (HIPK2; 1 µM) [%] | remaining activity at 1 µM (Lck; 1 µM) [%] | remaining activity at 1 µM (MKK6; 1 µM) [%] | remaining activity at 1 µM (MST4; 1 µM) [%] | remaining activity at 1 µM (PAK6; 1 µM) [%] | remaining activity at 1 µM (PRAK; 1 µM) [%] | remaining activity at 1 µM (TSSK1; 1 µM) [%] | remaining activity at 1 µM (TTBK1; 1 µM) [%] | remaining activity at 1 µM (BRK) [%] | remaining activity at 1 µM (BRSK1) [%] | remaining activity at 1 µM (ERK2) [%] | remaining activity at 1 µM (HER4) [%] | remaining activity at 1 µM (HIPK2) [%] | remaining activity at 1 µM (Lck) [%] | remaining activity at 1 µM (MKK6) [%] | remaining activity at 1 µM (MST4) [%] | also measured
Cc1ccc(F)c(S(=O)(=O)Nc2ccc(-c3nc(OC[C@H]4CN(CCCCCCOCCOCCOCC(=O)N[C@H](C(=O)N5C[C@H](O)C[C@H]5C(=O)NCc5ccc(-c6scnc6C)cc5)C(C)(C)C)CCO4)c4cn[nH]c4n3)cc2)c1 [SGK3-PROTAC1] | 87 | 108 | 104 | 92 | 109 | 124 | 123 | 106 | 98 | 115 | 115 | 105 | – | – | – | – | – | – | – | – | –
COc1ccc(Cl)c(S(=O)(=O)Nc2ccc(-c3nc(OC[C@H]4CNCCO4)c4c(C)n[nH]c4n3)cc2)c1 [290-R, reference compound] | – | – | – | – | – | – | – | – | – | – | – | – | 113 | 95 | 109 | 102 | 50 | 89 | 102 | 50 | remaining activity at 1 µM (PAK6): 94%; remaining activity at 1 µM (PRAK): 78%; remaining activity at 1 µM (TSSK1): 98%; remaining activity at 1 µM (TTBK1): 109%
Cc1ccc(F)c(S(=O)(=O)Nc2ccc(-c3nc(OC[C@H]4CN(CCCCCCOCCOCCOCC(=O)N[C@H](C(=O)N5C[C@@H](O)C[C@H]5C(=O)NCc5ccc(-c6scnc6C)cc5)C(C)(C)C)CCO4)c4cn[nH]c4n3)cc2)c1 [cisSGK3-PROTAC1] | 105 | 106 | 95 | 103 | 100 | 116 | 108 | 99 | 99 | 119 | 113 | 113 | – | – | – | – | – | – | – | – | –
Cc1ccc(F)c(S(=O)(=O)Nc2ccc(-c3nc(OC[C@H]4CNCCO4)c4cn[nH]c4n3)cc2)c1 [308-R, reference compound] | – | – | – | – | – | – | – | – | – | – | – | 91 | 86 | 106 | 110 | 67 | 47 | 98 | 66 | 98 | remaining activity at 1 µM (PAK6): 80%; remaining activity at 1 µM (PRAK): 86%; remaining activity at 1 µM (TSSK1): 94%
